Measurements published in patent publication US20100249027A1, “CRF CONJUGATES WITH EXTENDED HALF-LIVES” (priority 2007, published 2010).
Like-named read-outs stand apart in the source and are kept apart here. Where no end group is shown, it is not given here.

What was measured:
[1] = plasma concentration time profile of hCRF after single intravenous and single subcutaneous injection (ELISA); assay type: in vivo, Sprague-Dawley Crl:CD rats; details: rat; for bioavailability: sc
Excerpt: The objective of this study was to determine the plasma concentration time profile of hCRF following a single intravenous and a single subcutaneous injection in three groups of Sprague-Dawley Crl:CD® :R rats. […] For the intravenous portion of the study, each of the three dose groups consisted of 72 males. Each of these groups was divided into three sets of replicates. Seven days after the intravenous portion of the study, 61 of the 72 animals from each of the three dose groups were randomly selected for the subcutaneous portion of the study. Each dose group was divided into three sets of replicates. Blood samples were taken at multiple time points via orbital sinus bleeding. Following intravenous dosing, blood samples were collected at time points out to 24 hours post dose. Following subcutaneous dosing, blood samples were collected at time points out to 48 hours post dose. Blood samples were collected from three rats in each dose group for each time point. […] All of the surviving animals were euthanized on the third day following subcutaneous dosing.
Plasma samples were prepared and hCRF concentrations in the plasma samples were determine by an ELISA method. […] Pharmacokinetic analyses were conducted for this dose group using the limited data obtained.

CRF R1 = target: T1, CRF R1 (Homo sapiens, UniProt P34998); details: cited from earlier work
T1 sequence (P34998 24-415): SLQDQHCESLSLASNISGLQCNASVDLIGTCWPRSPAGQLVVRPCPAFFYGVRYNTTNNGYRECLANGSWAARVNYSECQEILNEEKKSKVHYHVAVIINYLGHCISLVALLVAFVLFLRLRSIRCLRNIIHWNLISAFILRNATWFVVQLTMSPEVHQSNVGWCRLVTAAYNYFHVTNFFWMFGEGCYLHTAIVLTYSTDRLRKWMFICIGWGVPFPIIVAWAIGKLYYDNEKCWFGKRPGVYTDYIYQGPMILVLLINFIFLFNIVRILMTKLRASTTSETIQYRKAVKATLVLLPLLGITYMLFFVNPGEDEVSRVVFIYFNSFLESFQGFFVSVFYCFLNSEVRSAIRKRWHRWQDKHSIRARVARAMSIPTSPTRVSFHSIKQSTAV

## CC[C@H](C)[C@H](NC(=O)[C@@H](NC(=O)[C@H](CCC(=O)O)NC(=O)[C@H](CCSC)NC(=O)[C@H](CC(C)C)NC(=O)[C@H](CCCCN)NC(=O)[C@H](CCCNC(=N)N)NC(=O)[C@H](CC(N)=O)NC(=O)[C@H](CO)NC(=O)[C@H](Cc1c[nH]cn1)NC(=O)[C@H](C)NC(=O)[C@H](CCC(N)=O)NC(=O)[C@H](CCC(N)=O)NC(=O)[C@H](C)NC(=O)[C@H](CC(C)C)NC(=O)[C@H](CCC(N)=O)NC(=O)[C@H](CCC(=O)O)NC(=O)[C@H](C)NC(=O)[C@H](CCCNC(=N)N)NC(=O)[C@H](C)NC(=O)[C@H](CCSC)NC(=O)[C@H](CCC(=O)O)NC(=O)[C@H](CC(C)C)NC(=O)[C@@H](NC(=O)[C@H](CCC(=O)O)NC(=O)[C@H](CCCNC(=N)N)NC(=O)[C@H](CC(C)C)NC(=O)[C@H](CC(C)C)NC(=O)[C@H](Cc1c[nH]cn1)NC(=O)[C@H](Cc1ccccc1)NC(=O)[C@@H](NC(=O)[C@H](CC(C)C)NC(=O)[C@H](CC(=O)O)NC(=O)[C@H](CC(C)C)NC(=O)[C@H](CO)NC(=O)[C@@H](NC(=O)[C@@H]1CCCN1C(=O)[C@@H]1CCCN1C(=O)[C@H](CCC(=O)O)NC(=O)[C@H](CCC(=O)O)NC(=O)[C@@H](N)CO)[C@@H](C)CC)[C@@H](C)O)C(C)C)[C@@H](C)CC)C(N)=O [hCRF]
[1]; in vivo, 10 ug/kg, IV
  AUC: 5.5 ng·h/mL
  Cmax: 25.1 ± 3.8 ng/mL
  clearance: 30 ± 3.06 mL/min/kg
[1]; in vivo, 10 ug/kg, intravenous, 10 μg/kg, single exponential clearance, read-out: half-life
  half-life: 9.2 min
[1]; in vivo, 100 ug/kg, IV
  AUC: 516 ng·h/mL
  Cmax: 1040 ± 105 ng/mL
  clearance: 3.23 ± 0.26 mL/min/kg
[1]; in vivo, 100 ug/kg, SC
  AUC: 214 ng·h/mL
  Cmax: 108 ± 16.7 ng/mL
[1]; in vivo, 100 ug/kg, intravenous, 100 μg/kg, single exponential clearance, read-out: half-life
  half-life: 20.7 min
[1]; in vivo, 1000 ug/kg, SC
  AUC: 1790 ng·h/mL
  Cmax: 618 ± 78.9 ng/mL
[1]; in vivo, 100 ug/kg, subcutaneous
  bioavailability: 41%
[1]; in vivo, subcutaneous, 1,000 μg/kg
  bioavailability: 37%
[1]; in vivo, IV, 1,000 μg/kg
  AUC: 4880 ng·h/mL
  Cmax: 7600 ± 488 ng/mL
  clearance: 3.42 ± 0.18 mL/min/kg
[1]; in vivo, intravenous, 1,000 μg/kg, single exponential clearance, read-out: half-life
  half-life: 26.7 min
[1]; male, Sprague-Dawley Crl:CD, plasma, 100 ug/kg, SC, 100 μg/kg, read-out: t1/2β (terminal)
  half-life: 62.6 ± 5.9 min
[1]; male, Sprague-Dawley Crl:CD, plasma, 1000 ug/kg, SC, 1000 μg/kg, read-out: t1/2β (terminal)
  half-life: 72.1 ± 14.8 min
[1]; IV, 10 μg/kg
  t1/2α: 9.22 ± 1.05 min
[1]; IV, 100 μg/kg
  t1/2α: 20.71 ± 0.92 min
[1]; IV, 1,000 μg/kg
  t1/2α: 26.69 ± 0.62 min
[1]; SC, 100 μg/kg
  Bioavail.: 41 ± 6%
  CL: 7.78 ± 1.01 mL/min/kg
  t1/2α: 6.96 ± 3.44 min
[1]; SC, 1000 μg/kg
  Bioavail.: 37 ± 5%
  CL: 9.30 ± 1.05 mL/min/kg
  t1/2α: 21.56 ± 8.15 min
[1]; intravenously or subcutaneously, between 100 and 1,000 μg/kg
  dose proportionality of pharmacokinetics: dose proportional

## III: CRF-related peptide Ucn III, also known as stresscopin (FTLSLDVPTNIMNLLFNIAKAKNLRAQAAANAHLMAQI; ends and bridges not checked; UniProt Q969E3 120-157, looked up)
CRF R1
  affinity for the CRF R1 subtype: little affinity

## Ucn II: CRF-related peptide urocortin II, 26% sequence homology to CRF (IVLSLDVPIGLLQILLEQARARAAREQATTNARILARVGHC; ends and bridges not checked; UniProt Q96RP3 72-112, looked up)
CRF R1
  affinity for the CRF R1 subtype: little affinity
